The text below walks through data of patent US20120309716A1, “Motor Function Improver” (Kao Corporation, priority 2010, published 2012).

One assay has as its system isolated soleus muscle. Put plainly: Suppression of muscle strength deterioration after tail suspension treatment (isolated soleus muscle). The assay is classed as in vivo, mouse. The following applies: mice, 0.25% sphingomyelin diet for two weeks, then seven days of tail suspension; SPM group vs Cont group. From the text:
After preliminary rearing for one week, BALB/c male mice (nine-week old) were classified into three groups (a Normal group, a Cont group, and an SPM group) based on their weights (n=8 in each group). After grouping, the mice of the Normal group and the Cont group were fed with a control feed (10% lipid, 20% casein, 55.5% potato starch, 8.1% cellulose, 0.2% methionine, 2.2% vitamin, and 4% mineral), and the mice of the SPM group were fed with a test feed containing the sphingomyelin prepared in Production Example 1 (10% lipid, 20% casein, 55.25% potato starch, 8.1% cellulose, 0.2% methionine, 2.2% vitamin, 4% mineral, and 0.25% sphingomyelin) each for two weeks. The mice were fed with the test feed for two weeks, and the mice of the Cont group and the SPM group were subject to a tail suspension treatment to exclude a gravity load on their hindlimb muscles (such as soleus muscle). […] The mice of the Normal group were not subjected to the tail suspension treatment. After seven days of the tail suspension treatment, the mice were subjected to anatomy, and muscle strength of the isolated soleus muscle was measured. The muscle strength of the isolated muscle was measured in the same way as in Test Example 1.

Assay [1] concerns isolated soleus muscle and extensor digitorum longus muscle. Put plainly: Muscle strength of isolated soleus and extensor digitorum longus muscle after 13 weeks of rearing with exercise. It is filed as in vivo, mouse. The settings on record: mice, 0.25% sphingomyelin diet and exercise, electrical stimulation 40 Hz, 330 ms, 10V. From the text: After preliminary rearing for one week, nine-week old BALE/c male mice (Charles River Laboratories Japan Inc.) were classified into three groups (a Cont group, an Ex group, and an SPM group) (eight mice in each group) such that each group had the same body weight and swimming endurance (determined by measuring a limit swimming time by using a flowing water pool for mice (Kyodai Matsumoto type flowing water tank for measuring an amount of exercise: length×width×depth=90×45×45 cm, water depth: 38 cm, water temperature: 34° C. (Matsumoto, J Appl Physiol. 81: 1843-1849, 1996)) by the below-mentioned method). […] After 13 weeks of rearing, the mice were subjected to anatomy, muscle strength of isolated soleus muscle and extensor digitorum longus muscle was measured. Muscle strength of the isolated muscle was measured according to a method by Cannon et al. (Biomed Sci Instrum, 2005). […] Electrical stimulation of 40 Hz, 330 ms, and 10V was applied by using two platinum electrodes, and a signal obtained from the transducer was determined as muscle strength (g/mg muscle).

Assay [2] relates to mice. Put plainly: Respiratory gas analysis (energy consumption and lipid combustion). The assay is classed as in vivo, mouse. The settings on record: average in 24 hours after nine weeks of rearing, 0.25% sphingomyelin test feed. The text has this: After preliminary rearing for one week, nine-week old BALB/c mice (male: Oriental Bioservice, Inc.) were classified into two groups (eight mice in each group) such that each group had the same body weight.
(§1) After that, the mice were fed with a control feed (10% lipid, 20% casein, 55.5% potato starch, 8.1% cellulose, 0.2% methionine, 2.2% vitamin (product name: Vitamin mix AIN-76, Oriental Bioservice, Inc.), and 4% mineral (product name: Mineral mix AIN-76, Oriental Bioservice, Inc.)) or a test feed containing the sphingomyelin (10% lipid, 20% casein, […], 8.1% cellulose, 0.2% methionine, 2.2% vitamin, 4% mineral, and 0.25% sphingomyelin) each for nine weeks, and a respiratory gas analysis was carried out at the tenth week.
The mice were transferred to a chamber for respiratory gas analysis and habituated to the environment for 48 hours, and oxygen consumption level and respiratory quotient of each mouse were measured over 24 hours using Arco-2000 system (ARCOSYSTEM Inc.). […] From the oxygen consumption level and respiratory quotient, the lipid combustion level was calculated by an equation of Peronnet (Peronnet F, and Massicotte D (1991) Can J Sport Sci 16:23-29.).

In assay [3] the test system is mice. In words: Swimming endurance (limit swimming time in flowing water pool). The assay is classed as in vivo, mouse. The following applies: 0.25% sphingomyelin diet and exercise, five weeks after beginning of administration, flow rate 7 L/min. From the text:
After preliminary rearing for one week, nine-week old BALE/c male mice (Charles River Laboratories Japan Inc.) were classified into three groups (a Cont group, an Ex group, and an SPM group) (eight mice in each group) such that each group had the same body weight and swimming endurance (determined by measuring a limit swimming time by using a flowing water pool for mice (Kyodai Matsumoto type flowing water tank for measuring an amount of exercise: length×width×depth=90×45×45 cm, water depth: 38 cm, water temperature: 34° C. (Matsumoto, J Appl Physiol. 81: 1843-1849, 1996)) by the below-mentioned method).
After grouping, the mice of the Cont group and the Ex group were fed with a control feed (10% lipid, 20% casein, 55.5% potato starch, 8.1% cellulose, 0.2% methionine, 2.2% vitamin (product name: Vitamin mix AIN-76, Oriental Bioservice, Inc.), and 4% mineral (product name: Mineral mix AIN-76, Oriental Bioservice, Inc.)), and the mice of the SPM group were fed with a test feed containing the sphingomyelin prepared in Production Example 1 (10% lipid, 20% casein, 55.25% potato starch, 8.1% cellulose, 0.2% methionine, 2.2% vitamin, 4% mineral, and 0.25% sphingomyelin) each for 13 weeks.
During the feeding period, the limit swimming time was measured for the mice of the Ex group and the SPM group using the flowing water pool for mice once a week. […]

Another assay deals with PGC-1α. In words: Expression of gastrocnemius muscle mitochondrial function-related gene (quantitative PCR). The assay is classed as in vivo. The settings on record: mouse gastrocnemius muscle after 13 weeks of rearing, 0.25% sphingomyelin test feed; control group 1.17 ± 0.10; p < 0.05.
Source text: as §1
After 13 weeks of rearing, the gastrocnemius muscle of a mouse of each group was collected, and RNA samples were obtained using RNeasy Fibrous Tissue Mini Kit (Qiagen). Each RNA sample was quantified, and a reverse transcription reaction was carried out in a reaction solution (1×PCR buffer II (Applied Biosystems), 5 mM MgCl2, 1 mM dNTP mix, 2.5 μM Oligo d [T]18 (New England Biolabs) and 1 U/ml RNase inhibitor (TAKARA BIO INC.) for 125 ng of RNA per reaction, to thereby obtain cDNA. The reaction was carried out under conditions of 42° C. and 10 min, 52° C. and 30 min, and 99° C. and 5 min.
Quantitative PCR was carried out using the thus obtained cDNA as a template by ABI PRISM 7700 Sequence Detector (Applied Biosystems) The results were corrected based on the expression amount of 36B4 mRNA and represented as relative mRNA expression amounts. […]

For sphingomyelin, in the assay with isolated soleus muscle, the “muscle strength of the isolated soleus muscle” value is recorded as “significantly higher value”. For the same substance, in assay [1], the “muscle strength of the extensor digitorum longus muscle” value is on record as “significantly higher values” and the “muscle strength of the soleus muscle” value is recorded as “significantly higher values”. Moreover, the Lipid combustion level in the assay with mice [2] (calculated by equation of Peronnet, control group 5.4 ± 0.7, p < 0.05) was 7.5 ± 0.7 mg/kg/min. Besides, the Oxygen consumption level in the assay on mice [2] (control group 55.0 ± 1.0, p < 0.05) turned out to be 58.2 ± 0.8 mL/min/kg. In the assay on mice [3], the “swimming endurance (limit swimming time)” value is “significant improvement in endurance”. For the same substance, the “PGC-1α relative mRNA expression amount (corrected based on 36B4 mRNA)” value with PGC-1α was 1.50 ± 0.15.
